The source made the active and inactive calls. The rule behind the calls is not given here.
Assays:
P388 [1] = assay: Antitumor activity against mouse P388 cells allografted in BDF1 mouse assessed as increase in survival time at 0.5 mg/kg administered 24 hrs post challenge relative to control; format: functional
Mus musculus [2] = assay: Toxicity in mouse P388 cells allografted BDF1 mouse assessed as body weight difference at 0.06 mg/kg administered 24 hrs post challenge relative to control; format: organism-based; design: dose 0.06 mg/kg; details: in vivo
P388 [3] = assay: Antitumor activity against mouse P388 cells allografted in BDF1 mouse assessed as increase in survival time at 0.06 mg/kg administered 24 hrs post challenge relative to control; format: functional
Mus musculus [4] = assay: Toxicity in mouse P388 cells allografted BDF1 mouse assessed as body weight difference at 0.25 mg/kg administered 24 hrs post challenge relative to control; format: organism-based; design: dose 0.25 mg/kg; details: in vivo
Mus musculus [5] = assay: Toxicity in mouse P388 cells allografted BDF1 mouse assessed as body weight difference at 0.12 mg/kg administered 24 hrs post challenge relative to control; format: organism-based; design: dose 0.12 mg/kg; details: in vivo
P388 [6] = assay: Antitumor activity against mouse P388 cells allografted in BDF1 mouse assessed as increase in survival time at 0.25 mg/kg administered 24 hrs post challenge relative to control; format: functional
P388 [7] = assay: Antitumor activity against mouse P388 cells allografted in BDF1 mouse assessed as mouse survival at 0.06 mg/kg administered 24 hrs post challenge relative to control; format: functional, organism-based; design: dose 0.06 mg/kg
B16 [8] = assay: Antitumor activity against mouse B16 cells allografted in BDF1 mouse assessed as increase in survival time at 1 mg/kg administered 24 hrs post challenge relative to control; format: functional
Mus musculus [9] = assay: Toxicity in mouse P388 cells allografted BDF1 mouse assessed as body weight difference at 0.5 mg/kg administered 24 hrs post challenge relative to control; format: organism-based; design: dose 0.5 mg/kg; details: in vivo
P388 [10] = assay: Antitumor activity against mouse P388 cells allografted in BDF1 mouse assessed as mouse survival at 0.25 mg/kg administered 24 hrs post challenge relative to control; format: functional, organism-based; design: dose 0.25 mg/kg
Mus musculus [11] = assay: Toxicity in mouse P388 cells allografted BDF1 mouse assessed as body weight difference at 1 mg/kg administered 24 hrs post challenge relative to control; format: organism-based; design: dose 1 mg/kg; details: in vivo
P388 [12] = assay: Antitumor activity against mouse P388 cells allografted in BDF1 mouse assessed as increase in survival time at 2 mg/kg administered 24 hrs post challenge relative to control; format: functional
P388 [13] = assay: Antitumor activity against mouse P388 cells allografted in BDF1 mouse assessed as increase in survival time at 0.12 mg/kg administered 24 hrs post challenge relative to control; format: functional
Mus musculus [14] = assay: Toxicity in mouse P388 cells allografted BDF1 mouse assessed as body weight difference at 2 mg/kg administered 24 hrs post challenge relative to control; format: organism-based; design: dose 2 mg/kg; details: in vivo
P388 [15] = assay: Antitumor activity against mouse P388 cells allografted in BDF1 mouse assessed as increase in survival time at 1 mg/kg administered 24 hrs post challenge relative to control; format: functional
P388 [16] = assay: Antitumor activity against mouse P388 cells allografted in BDF1 mouse assessed as mouse survival at 0.12 mg/kg administered 24 hrs post challenge relative to control; format: functional, organism-based; design: dose 0.12 mg/kg
B16 [17] = assay: Antitumor activity against mouse B16 cells allografted in BDF1 mouse assessed as increase in survival time at 0.5 mg/kg administered 24 hrs post challenge relative to control; format: functional
P388 [18] = assay: Antitumor activity against mouse P388 cells allografted in BDF1 mouse assessed as mouse survival at 0.5 mg/kg administered 24 hrs post challenge relative to control; format: functional, organism-based; design: dose 0.5 mg/kg
P388 [19] = assay: Antitumor activity against mouse P388 cells allografted in BDF1 mouse assessed as mouse survival at 2 mg/kg administered 24 hrs post challenge relative to control; format: functional, organism-based; design: dose 2 mg/kg

O=C1c2c(O)ccc(O)c2C(=O)c2c(NCCNCCO)ccc(NCCNCCO)c21 [MITOXANTRONE]
T/C (P388 [1]): 299% | Activity (Mus musculus [2]): -1.7 g | T/C (P388 [3]): 208% | Activity (Mus musculus [4]): -2.3 g | Activity (Mus musculus [5]): -1.4 g | T/C (P388 [6]): 280% | Activity (P388 [7]): Active | T/C (B16 [8]): 503% | Activity (Mus musculus [9]): -2 g | Activity (P388 [10]): Active | Activity (Mus musculus [11]): -0.6 g | T/C (P388 [12]): 280% | T/C (P388 [13]): 200% | Activity (Mus musculus [14]): -0.6 g | T/C (P388 [15]): 277% | Activity (P388 [16]): Active | T/C (B16 [17]): 466% | Activity (P388 [18]): Active | Activity (P388 [19]): Active

From ChEMBL document CHEMBL3244338, “Antineoplastic agents. Structure-activity relationship study of bis(substituted aminoalkylamino)anthraquinones” (J Med Chem, 1978)
